Measured values taken from the supplement of paper PMC10883282.
± gives the standard deviation of the averaged measurements.

Key:
Assay in all cases: relative viability vs DMSO control (72 h) (fraction); higher = more viable cells
[1] = test system: SW982
Outline: (§1)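 Relative viability was measured with ATPLite and expressed as percent growth, averaged across up to triplicate wells. Sarcoma cell lines had been seeded in 384-well plates to reach 80–90% confluence, dosed after 24 h, and incubated 72 h at 37 °C, 5% CO2. All data were rescaled on a scale where 1 is full and 0 is none.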

[2] = test system: SK-ES-1
Outline: as §1

[3] = test system: VA-ES-BJ
Outline: as §1

[4] = test system: A204
Outline: as §1

[5] = test system: MES-SA
Outline: as §1

Question: `Cc1cccc(-c2nn3c(c2-c2ccnc4ccc(C(N)=O)cc24)CCC3)n1` [Galunisertib] was tested. Which relative viability ([1]; 0.00017 µM) did it give?
Answer: 1 ± 0.021

Question: And the relative viability ([1]; 0.00051 µM)?
Answer: 1.02 ± 0.03

Question: What about the relative viability ([1]; 0.00152 µM) of the same compound?
Answer: 0.965 ± 0.019

Question: What about the relative viability ([1]; 0.00457 µM) of the same compound?
Answer: 1 ± 0.044

Question: What about the relative viability ([1]; 0.01372 µM) of the same compound?
Answer: 0.999 ± 0.02

Question: And the relative viability ([1]; 0.04115 µM)?
Answer: 0.98 ± 0.035

Question: What about the relative viability ([1]; 0.1235 µM) of the same compound?
Answer: 0.974 ± 0.013

Question: And the relative viability ([1]; 0.3704 µM)?
Answer: 0.977 ± 0.023

Question: What about the relative viability ([1]; 1.111 µM) of the same compound?
Answer: 0.988 ± 0.033

Question: What about the relative viability ([1]; 3.333 µM) of the same compound?
Answer: 0.98 ± 0.027

Question: And the relative viability ([1]; 10 µM)?
Answer: 1.05 ± 0.094

Question: And the relative viability ([2]; 0.00017 µM)?
Answer: 1.02 ± 0.057

Question: What about the relative viability ([2]; 0.00051 µM) of the same compound?
Answer: 1.03 ± 0.066

Question: And the relative viability ([2]; 0.00152 µM)?
Answer: 0.998 ± 0.051

Question: What about the relative viability ([2]; 0.00457 µM) of the same compound?
Answer: 0.978 ± 0.063

Question: What about the relative viability ([2]; 0.01372 µM) of the same compound?
Answer: 1.06 ± 0.11

Question: And the relative viability ([2]; 0.04115 µM)?
Answer: 1.02 ± 0.054

Question: What about the relative viability ([2]; 0.1235 µM) of the same compound?
Answer: 0.946 ± 0.046

Question: And the relative viability ([2]; 0.3704 µM)?
Answer: 0.996 ± 0.11

Question: What about the relative viability ([2]; 1.111 µM) of the same compound?
Answer: 0.974 ± 0.076

Question: What about the relative viability ([2]; 3.333 µM) of the same compound?
Answer: 0.96 ± 0.041

Question: What about the relative viability ([2]; 10 µM) of the same compound?
Answer: 0.959 ± 0.07

Question: What about the relative viability ([3]; 0.00017 µM) of the same compound?
Answer: 1.04 ± 0.038

Question: What about the relative viability ([3]; 0.00051 µM) of the same compound?
Answer: 1 ± 0.014

Question: And the relative viability ([3]; 0.00152 µM)?
Answer: 1.03 ± 0.02

Question: And the relative viability ([3]; 0.00457 µM)?
Answer: 0.9974 ± 0.0032

Question: What about the relative viability ([3]; 0.01372 µM) of the same compound?
Answer: 0.983 ± 0.021

Question: And the relative viability ([3]; 0.04115 µM)?
Answer: 0.986 ± 0.029

Question: And the relative viability ([3]; 0.1235 µM)?
Answer: 1.01 ± 0.045

Question: And the relative viability ([3]; 0.3704 µM)?
Answer: 1.01 ± 0.023

Question: And the relative viability ([3]; 1.111 µM)?
Answer: 1.07 ± 0.047

Question: What about the relative viability ([3]; 3.333 µM) of the same compound?
Answer: 1.08 ± 0.039

Question: And the relative viability ([3]; 10 µM)?
Answer: 1.11 ± 0.035

Question: What about the relative viability ([4]; 0.00017 µM) of the same compound?
Answer: 1.01 ± 0.021

Question: What about the relative viability ([4]; 0.00051 µM) of the same compound?
Answer: 1.04 ± 0.028

Question: And the relative viability ([4]; 0.00152 µM)?
Answer: 0.99 ± 0.023

Question: And the relative viability ([4]; 0.00457 µM)?
Answer: 1.03 ± 0.036

Question: What about the relative viability ([4]; 0.01372 µM) of the same compound?
Answer: 0.984 ± 0.044

Question: What about the relative viability ([4]; 0.04115 µM) of the same compound?
Answer: 1 ± 0.03

Question: And the relative viability ([4]; 0.1235 µM)?
Answer: 1.01 ± 0.072

Question: And the relative viability ([4]; 0.3704 µM)?
Answer: 1.02 ± 0.051

Question: What about the relative viability ([4]; 1.111 µM) of the same compound?
Answer: 0.996 ± 0.05

Question: What about the relative viability ([4]; 3.333 µM) of the same compound?
Answer: 0.996 ± 0.067

Question: What about the relative viability ([4]; 10 µM) of the same compound?
Answer: 0.936 ± 0.05

Question: What about the relative viability ([5]; 0.00017 µM) of the same compound?
Answer: 0.925 ± 0.06

Question: And the relative viability ([5]; 0.00051 µM)?
Answer: 0.922 ± 0.029

Question: What about the relative viability ([5]; 0.00152 µM) of the same compound?
Answer: 0.916 ± 0.053

Question: And the relative viability ([5]; 0.00457 µM)?
Answer: 0.897 ± 0.029

Question: What about the relative viability ([5]; 0.01372 µM) of the same compound?
Answer: 0.911 ± 0.027

Question: What about the relative viability ([5]; 0.04115 µM) of the same compound?
Answer: 0.91 ± 0.026

Question: What about the relative viability ([5]; 0.1235 µM) of the same compound?
Answer: 0.9002 ± 0.0083

Question: And the relative viability ([5]; 0.3704 µM)?
Answer: 0.891 ± 0.042

Question: What about the relative viability ([5]; 1.111 µM) of the same compound?
Answer: 0.888 ± 0.022

Question: What about the relative viability ([5]; 3.333 µM) of the same compound?
Answer: 0.863 ± 0.033

Question: What about the relative viability ([5]; 10 µM) of the same compound?
Answer: 0.873 ± 0.029

Question: Which results are given for `CN1CC[C@@H](NC(=O)Nc2ccc(C#N)cc2)C[C@@H]1c1nc2ccccc2[nH]1` [Glasdegib]?
Answer: relative viability ([1]; 0.00017 µM): 0.988 ± 0.014; relative viability ([1]; 0.00051 µM): 0.993 ± 0.022; relative viability ([1]; 0.00152 µM): 1 ± 0.017; relative viability ([1]; 0.00457 µM): 1.03 ± 0.024; relative viability ([1]; 0.01372 µM): 1 ± 0.01; relative viability ([1]; 0.04115 µM): 0.971 ± 0.07; relative viability ([1]; 0.1235 µM): 1.004 ± 0.0054; relative viability ([1]; 0.3704 µM): 0.985 ± 0.025; relative viability ([1]; 1.111 µM): 1.02 ± 0.022; relative viability ([1]; 3.333 µM): 1.02 ± 0.015; relative viability ([1]; 10 µM): 0.992 ± 0.04; relative viability ([2]; 0.00017 µM): 1 ± 0.042; relative viability ([2]; 0.00051 µM): 1.03 ± 0.049; relative viability ([2]; 0.00152 µM): 1 ± 0.021; relative viability ([2]; 0.00457 µM): 1.02 ± 0.018; relative viability ([2]; 0.01372 µM): 1.01 ± 0.062; relative viability ([2]; 0.04115 µM): 0.965 ± 0.034; relative viability ([2]; 0.1235 µM): 0.944 ± 0.086; relative viability ([2]; 0.3704 µM): 0.975 ± 0.046; relative viability ([2]; 1.111 µM): 0.944 ± 0.057; relative viability ([2]; 3.333 µM): 0.77 ± 0.025; relative viability ([2]; 10 µM): 0.696 ± 0.024; relative viability ([3]; 0.00017 µM): 1.07 ± 0.059; relative viability ([3]; 0.00051 µM): 1.07 ± 0.016; relative viability ([3]; 0.00152 µM): 1.06 ± 0.048; relative viability ([3]; 0.00457 µM): 1.068 ± 0.01; relative viability ([3]; 0.01372 µM): 1.07 ± 0.027; relative viability ([3]; 0.04115 µM): 1.06 ± 0.035; relative viability ([3]; 0.1235 µM): 1.05 ± 0.022; relative viability ([3]; 0.3704 µM): 1.04 ± 0.019; relative viability ([3]; 1.111 µM): 1.01 ± 0.036; relative viability ([3]; 3.333 µM): 1.08 ± 0.015; relative viability ([3]; 10 µM): 1.06 ± 0.037; relative viability ([4]; 0.00017 µM): 1.07 ± 0.036; relative viability ([4]; 0.00051 µM): 1.074 ± 0.0036; relative viability ([4]; 0.00152 µM): 1.09 ± 0.027; relative viability ([4]; 0.00457 µM): 1.06 ± 0.036; relative viability ([4]; 0.01372 µM): 1.09 ± 0.025; relative viability ([4]; 0.04115 µM): 1.06 ± 0.019; relative viability ([4]; 0.1235 µM): 1.064 ± 0.0094; relative viability ([4]; 0.3704 µM): 1.05 ± 0.025; relative viability ([4]; 1.111 µM): 1.04 ± 0.032; relative viability ([4]; 3.333 µM): 1.02 ± 0.052; relative viability ([4]; 10 µM): 0.975 ± 0.1; relative viability ([5]; 0.00017 µM): 0.945 ± 0.011; relative viability ([5]; 0.00051 µM): 0.956 ± 0.026; relative viability ([5]; 0.00152 µM): 0.976 ± 0.015; relative viability ([5]; 0.00457 µM): 0.956 ± 0.029; relative viability ([5]; 0.01372 µM): 0.952 ± 0.054; relative viability ([5]; 0.04115 µM): 0.915 ± 0.028; relative viability ([5]; 0.1235 µM): 0.938 ± 0.04; relative viability ([5]; 0.3704 µM): 0.919 ± 0.016; relative viability ([5]; 1.111 µM): 0.926 ± 0.066; relative viability ([5]; 3.333 µM): 0.935 ± 0.029; relative viability ([5]; 10 µM): 0.85 ± 0.024
